Data: ChEMBL document CHEMBL5532655, “Discovery of (R)-4-(8-methoxy-2-methyl-1-(1-phenylethy)-1H-imidazo[4,5-c]quinnolin-7-yl)-3,5-dimethylisoxazole as a potent and selective BET inhibitor for treatment of acute myeloid leukemia (AML) guided by FEP calculation” (Eur J Med Chem, 2024)
Each block holds one compound with its values, some of them ahead of it. Active and inactive are the calls of the source. The calls are words filed in the database; no cut-off is given here.

Experiments:
[1] = target: T1, Bromodomain-containing protein 9 (Homo sapiens) (UniProt Q9H8M2); assay: Binding affinity to BRD9 (unknown origin) using biotinylated histone peptide H4 as substrate at 1 uM incubated for 2 hrs by AlphaScreen assay relative to control
T1 sequence (whole entry): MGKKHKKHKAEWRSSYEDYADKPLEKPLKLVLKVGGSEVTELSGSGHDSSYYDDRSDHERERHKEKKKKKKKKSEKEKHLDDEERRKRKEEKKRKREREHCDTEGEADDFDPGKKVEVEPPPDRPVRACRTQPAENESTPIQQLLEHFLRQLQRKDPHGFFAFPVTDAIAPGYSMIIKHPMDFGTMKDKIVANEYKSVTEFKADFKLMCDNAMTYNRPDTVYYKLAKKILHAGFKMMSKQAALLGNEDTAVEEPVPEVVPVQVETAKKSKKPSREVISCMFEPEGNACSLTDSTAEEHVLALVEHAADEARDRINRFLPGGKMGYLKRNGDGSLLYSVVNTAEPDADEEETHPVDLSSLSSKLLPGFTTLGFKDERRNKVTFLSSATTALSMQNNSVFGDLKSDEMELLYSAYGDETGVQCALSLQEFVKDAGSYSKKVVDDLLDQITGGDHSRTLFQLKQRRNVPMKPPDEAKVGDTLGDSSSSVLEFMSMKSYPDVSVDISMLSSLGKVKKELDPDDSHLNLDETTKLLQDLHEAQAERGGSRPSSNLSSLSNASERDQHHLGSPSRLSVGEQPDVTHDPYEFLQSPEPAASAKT

[2] = target: SWI/SNF-related matrix-associated actin-dependent regulator of chromatin subfamily A member 2 (Homo sapiens) (UniProt P51531); assay: Binding affinity to SMARCA2 (unknown origin) using biotinylated histone peptide H4 as substrate at 1 uM incubated for 2 hrs by AlphaScreen assay relative to control
Chain of SWI/SNF-related matrix-associated actin-dependent regulator of chromatin subfamily A member 2 (Homo sapiens) (P51531 whole entry, the tested form may be a part): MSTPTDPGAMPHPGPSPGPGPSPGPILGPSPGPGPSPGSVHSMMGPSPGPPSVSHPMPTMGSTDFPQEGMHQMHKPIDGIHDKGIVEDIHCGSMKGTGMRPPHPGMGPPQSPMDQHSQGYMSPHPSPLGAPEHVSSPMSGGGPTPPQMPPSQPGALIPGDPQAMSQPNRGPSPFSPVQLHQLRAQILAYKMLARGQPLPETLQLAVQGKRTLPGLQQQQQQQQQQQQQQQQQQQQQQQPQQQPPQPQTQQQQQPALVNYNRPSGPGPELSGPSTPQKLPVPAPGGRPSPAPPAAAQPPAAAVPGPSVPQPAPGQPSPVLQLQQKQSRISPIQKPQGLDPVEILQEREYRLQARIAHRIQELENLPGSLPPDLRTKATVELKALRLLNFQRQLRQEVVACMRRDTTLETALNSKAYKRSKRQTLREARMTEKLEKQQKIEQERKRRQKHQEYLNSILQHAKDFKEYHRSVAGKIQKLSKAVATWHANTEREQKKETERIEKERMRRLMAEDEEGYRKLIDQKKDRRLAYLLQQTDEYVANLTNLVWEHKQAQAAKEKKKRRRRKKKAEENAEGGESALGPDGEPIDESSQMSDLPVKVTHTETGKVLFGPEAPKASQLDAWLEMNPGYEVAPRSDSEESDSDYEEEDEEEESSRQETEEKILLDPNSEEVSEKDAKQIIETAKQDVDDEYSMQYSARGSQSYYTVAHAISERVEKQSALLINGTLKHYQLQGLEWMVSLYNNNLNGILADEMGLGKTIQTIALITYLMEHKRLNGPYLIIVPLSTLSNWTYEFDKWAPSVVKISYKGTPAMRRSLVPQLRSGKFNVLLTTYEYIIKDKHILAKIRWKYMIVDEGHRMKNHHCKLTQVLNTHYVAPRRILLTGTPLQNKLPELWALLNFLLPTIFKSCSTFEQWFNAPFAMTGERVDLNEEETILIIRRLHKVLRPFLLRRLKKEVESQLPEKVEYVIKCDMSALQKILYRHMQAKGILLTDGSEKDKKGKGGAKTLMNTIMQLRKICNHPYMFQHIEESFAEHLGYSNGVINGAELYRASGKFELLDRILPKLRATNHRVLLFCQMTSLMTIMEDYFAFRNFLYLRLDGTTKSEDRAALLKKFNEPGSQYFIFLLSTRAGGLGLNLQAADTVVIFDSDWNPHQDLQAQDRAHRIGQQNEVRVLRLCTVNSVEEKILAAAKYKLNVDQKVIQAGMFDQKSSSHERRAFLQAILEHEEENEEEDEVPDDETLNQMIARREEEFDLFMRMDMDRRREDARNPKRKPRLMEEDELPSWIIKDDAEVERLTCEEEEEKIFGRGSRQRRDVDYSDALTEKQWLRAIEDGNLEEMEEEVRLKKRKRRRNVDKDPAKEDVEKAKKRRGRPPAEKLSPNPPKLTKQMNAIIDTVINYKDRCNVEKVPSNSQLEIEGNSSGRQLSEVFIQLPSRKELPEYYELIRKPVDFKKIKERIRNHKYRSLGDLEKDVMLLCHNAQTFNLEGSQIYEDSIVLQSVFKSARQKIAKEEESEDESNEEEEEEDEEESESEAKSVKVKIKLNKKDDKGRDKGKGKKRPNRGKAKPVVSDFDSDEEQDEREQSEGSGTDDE

[3] = target: Bromodomain adjacent to zinc finger domain protein 2B (Homo sapiens) (UniProt Q9UIF8); conditions: time 30.0 min
Chain of Bromodomain adjacent to zinc finger domain protein 2B (Homo sapiens) (Q9UIF8 whole entry, the tested form may be a part): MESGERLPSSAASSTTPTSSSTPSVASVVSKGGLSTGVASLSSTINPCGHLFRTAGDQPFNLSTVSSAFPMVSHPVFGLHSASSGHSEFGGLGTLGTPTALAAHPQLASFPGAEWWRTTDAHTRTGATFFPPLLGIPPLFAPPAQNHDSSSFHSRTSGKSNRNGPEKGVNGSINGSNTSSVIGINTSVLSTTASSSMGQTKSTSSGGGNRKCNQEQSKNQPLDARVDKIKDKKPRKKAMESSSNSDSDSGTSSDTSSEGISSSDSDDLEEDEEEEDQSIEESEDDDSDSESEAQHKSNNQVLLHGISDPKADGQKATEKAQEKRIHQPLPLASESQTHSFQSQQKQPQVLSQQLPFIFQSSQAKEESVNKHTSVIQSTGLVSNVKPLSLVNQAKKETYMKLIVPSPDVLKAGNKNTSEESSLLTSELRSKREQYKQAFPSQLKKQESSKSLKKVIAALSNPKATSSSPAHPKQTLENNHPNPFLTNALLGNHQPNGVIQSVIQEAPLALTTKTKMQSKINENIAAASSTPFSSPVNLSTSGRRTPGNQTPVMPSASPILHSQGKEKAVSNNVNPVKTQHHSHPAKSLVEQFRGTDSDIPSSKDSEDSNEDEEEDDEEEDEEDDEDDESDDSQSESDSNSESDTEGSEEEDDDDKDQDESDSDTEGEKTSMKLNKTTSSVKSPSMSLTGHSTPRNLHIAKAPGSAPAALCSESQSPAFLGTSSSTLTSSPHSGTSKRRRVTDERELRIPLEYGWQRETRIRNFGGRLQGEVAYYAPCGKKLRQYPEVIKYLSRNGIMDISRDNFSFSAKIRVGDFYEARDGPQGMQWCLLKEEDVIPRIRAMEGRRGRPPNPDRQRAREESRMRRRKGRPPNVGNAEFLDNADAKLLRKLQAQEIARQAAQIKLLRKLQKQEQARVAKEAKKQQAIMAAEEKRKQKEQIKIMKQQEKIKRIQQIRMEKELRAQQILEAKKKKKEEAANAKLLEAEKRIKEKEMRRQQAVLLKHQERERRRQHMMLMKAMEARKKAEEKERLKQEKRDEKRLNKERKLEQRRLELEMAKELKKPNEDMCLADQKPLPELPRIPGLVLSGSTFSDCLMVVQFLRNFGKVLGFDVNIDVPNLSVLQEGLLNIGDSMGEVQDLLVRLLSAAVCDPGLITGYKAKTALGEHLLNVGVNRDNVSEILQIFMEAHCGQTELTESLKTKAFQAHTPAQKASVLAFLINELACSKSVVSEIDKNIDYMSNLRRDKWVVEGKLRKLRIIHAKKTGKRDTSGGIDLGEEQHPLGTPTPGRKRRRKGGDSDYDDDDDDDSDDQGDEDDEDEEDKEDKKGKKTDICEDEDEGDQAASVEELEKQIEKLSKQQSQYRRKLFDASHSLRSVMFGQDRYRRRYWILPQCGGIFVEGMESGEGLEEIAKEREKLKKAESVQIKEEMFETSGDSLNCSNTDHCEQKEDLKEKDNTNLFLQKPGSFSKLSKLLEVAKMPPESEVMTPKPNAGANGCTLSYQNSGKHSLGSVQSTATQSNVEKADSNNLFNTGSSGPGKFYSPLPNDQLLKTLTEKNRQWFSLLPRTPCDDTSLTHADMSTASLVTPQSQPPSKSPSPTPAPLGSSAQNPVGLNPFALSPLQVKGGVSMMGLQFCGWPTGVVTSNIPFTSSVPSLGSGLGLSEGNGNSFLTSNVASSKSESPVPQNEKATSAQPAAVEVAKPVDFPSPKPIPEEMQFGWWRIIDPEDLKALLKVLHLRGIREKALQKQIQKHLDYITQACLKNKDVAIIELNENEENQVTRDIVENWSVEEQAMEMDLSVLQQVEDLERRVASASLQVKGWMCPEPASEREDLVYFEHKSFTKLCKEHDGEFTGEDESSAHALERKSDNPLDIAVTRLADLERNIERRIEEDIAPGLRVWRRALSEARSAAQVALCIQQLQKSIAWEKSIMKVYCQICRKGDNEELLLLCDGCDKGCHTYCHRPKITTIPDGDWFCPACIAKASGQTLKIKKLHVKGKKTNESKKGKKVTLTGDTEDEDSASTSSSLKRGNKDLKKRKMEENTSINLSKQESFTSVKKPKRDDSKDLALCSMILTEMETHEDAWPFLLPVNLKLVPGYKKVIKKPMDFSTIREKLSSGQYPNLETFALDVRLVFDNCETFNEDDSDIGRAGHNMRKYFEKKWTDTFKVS

MV4-11 [4] = assay: Induction of apoptosis in human MV4-11 cells assessed as early apoptotic cells at 1.25 uM incubated for 24 hrs by annexin V-FITC/PI staining based flow cytometric analysis (reference value: 0%); type: functional
MV4-11 [5] = assay: Induction of apoptosis in human MV4-11 cells assessed as early apoptotic cells at 0.625 uM incubated for 24 hrs by annexin V-FITC/PI staining based flow cytometric analysis (reference value: 0%); type: functional
[6] = Half life in Sprague-Dawley rat at 1 mg/kg,iv administration measured upto 24 hrs by LC-MS/MS analysis; type: ADME, organism-based; conditions: in vivo
[7] = MRTinfinity in Sprague-Dawley rat at 1 mg/kg,iv administration measured upto 24 hrs by LC-MS/MS analysis; type: ADME, organism-based; conditions: in vivo
[8] = Clearance in Sprague-Dawley rat at 1 mg/kg,iv administration measured upto 24 hrs by LC-MS/MS analysis; type: ADME, organism-based; conditions: in vivo
[9] = AUC (0-t) in Sprague-Dawley rat at 1 mg/kg,iv administration measured upto 24 hrs by LC-MS/MS analysis; type: ADME, organism-based; conditions: in vivo
[10] = AUC (0-infinity) in Sprague-Dawley rat at 1 mg/kg,iv administration measured upto 24 hrs by LC-MS/MS analysis; type: ADME, organism-based; conditions: in vivo
[11] = Half life in Sprague-Dawley rat at 10 mg/kg,po administration measured upto 24 hrs by LC-MS/MS analysis; type: ADME, organism-based; conditions: in vivo
[12] = Cmax in Sprague-Dawley rat at 10 mg/kg,po administration measured upto 24 hrs by LC-MS/MS analysis; type: ADME, organism-based; conditions: in vivo
[13] = Oral bioavailability in Sprague-Dawley rat at 10 mg/kg measured upto 24 hrs by LC-MS/MS analysis; type: ADME, organism-based; conditions: in vivo
MV4-11 [14] = assay: Induction of apoptosis in human MV4-11 cells assessed as viable cells at 1.25 uM incubated for 24 hrs by annexin V-FITC/PI staining based flow cytometric analysis (reference value: 97%); type: functional; conditions: Homo sapiens, MV4-11, read-out: Activity
MV4-11 [15] = assay: Induction of apoptosis in human MV4-11 cells assessed as early apoptotic cells at 10 uM incubated for 24 hrs by annexin V-FITC/PI staining based flow cytometric analysis (reference value: 0%); type: functional
MV4-11 [16] = assay: Induction of apoptosis in human MV4-11 cells assessed as late apoptotic cells at 0.625 uM incubated for 24 hrs by annexin V-FITC/PI staining based flow cytometric analysis (reference value: 0.04 %); type: functional
MV4-11 [17] = assay: Induction of apoptosis in human MV4-11 cells assessed as late apoptotic cells at 1.25 uM incubated for 24 hrs by annexin V-FITC/PI staining based flow cytometric analysis (reference value: 0.04 %); type: functional
MV4-11 [18] = assay: Induction of apoptosis in human MV4-11 cells assessed as late apoptotic cells at 5 uM incubated for 24 hrs by annexin V-FITC/PI staining based flow cytometric analysis (reference value: 0.04 %); type: functional
MV4-11 [19] = assay: Induction of apoptosis in human MV4-11 cells assessed as late apoptotic cells at 10 uM incubated for 24 hrs by annexin V-FITC/PI staining based flow cytometric analysis (reference value: 0.04 %); type: functional
MV4-11 [20] = assay: Induction of apoptosis in human MV4-11 cells assessed as necrotic cells at 0.625 uM incubated for 24 hrs by annexin V-FITC/PI staining based flow cytometric analysis (reference value: 2.35 %); type: functional
MV4-11 [21] = assay: Induction of apoptosis in human MV4-11 cells assessed as necrotic cells at 1.25 uM incubated for 24 hrs by annexin V-FITC/PI staining based flow cytometric analysis (reference value: 2.35 %); type: functional
MV4-11 [22] = assay: Induction of apoptosis in human MV4-11 cells assessed as necrotic cells at 5 uM incubated for 24 hrs by annexin V-FITC/PI staining based flow cytometric analysis (reference value: 2.35 %); type: functional
MV4-11 [23] = assay: Induction of cell cycle arrest in human MV4-11 cells assessed as accumulation of cells at G0/G1 phase at 0.625 uM incubated for 24 hrs by propidium iodide staining flow cytometric analysis (reference value: 37.64 %); type: functional
MV4-11 [24] = assay: Induction of cell cycle arrest in human MV4-11 cells assessed as accumulation of cells at G0/G1 phase at 5 uM incubated for 24 hrs by propidium iodide staining flow cytometric analysis (reference value: 37.64 %); type: functional
MV4-11 [25] = assay: Induction of cell cycle arrest in human MV4-11 cells assessed as accumulation of cells at G2/M phase at 1.25 uM incubated for 24 hrs by propidium iodide staining flow cytometric analysis (reference value: 18 %); type: functional
MV4-11 [26] = assay: Induction of cell cycle arrest in human MV4-11 cells assessed as accumulation of cells at S phase at 2.5 uM incubated for 24 hrs by propidium iodide staining flow cytometric analysis (reference value: 43.94 %); type: functional
MV4-11 [27] = assay: Induction of apoptosis in human MV4-11 cells assessed as downregulation of c-Myc expression incubated for 48 hrs by Western blotting analysis; type: functional, cell-based
MV4-11 [28] = assay: Induction of apoptosis in human MV4-11 cells assessed as downregulation of CDK6 expression at 0.3125 to 2.5 uM incubated for 48 hrs by Western blotting analysis; type: functional, cell-based; conditions: dose 0.3125-2.5 µM
MV4-11 [29] = assay: Induction of apoptosis in human MV4-11 cells assessed as upregulation of p21 expression at 500 nM hrs by Western blotting analysis; type: functional, cell-based; conditions: TDE = time-dependent effect

Activity [1]: < 30%
Activity [2]: < 30%
ΔTm [3]: 0 °C
SMILES: COc1cc2c(cc1-c1c(C)n[nH]c1C)ncc1nc(C)n([C@H](C)c3ccccc3)c12

half-life [6]: 42 min
MRT inf [7]: 50.4 min
clearance [8]: 12.1 mL/min/kg
AUC(0-t) at 24 h [9]: 1380 ng·h/mL
AUC(0-inf) [10]: 1400 ng·h/mL
half-life [11]: 159 min
Cmax [12]: 1780 ng/mL
bioavailability [13]: 114%
Activity [1]: < 30%
Activity [2]: < 30%
ΔTm [3]: 0 °C
SMILES: COc1cc2c(cc1-c1c(C)noc1C)ncc1nc(C)n([C@H](C)c3ccccc3)c12
Activity (MV4-11 [4]): 6.62%
Activity (MV4-11 [5]): 6.87%
viability at 1.25 µM (MV4-11 [14]): 83.1%
Activity (MV4-11 [15]): 10.04%
Activity (MV4-11 [16]): 4.8%
Activity (MV4-11 [17]): 6.32%
Activity (MV4-11 [18]): 12.62%
Activity (MV4-11 [19]): 11.62%
Activity (MV4-11 [20]): 6%
Activity (MV4-11 [21]): 8%
Activity (MV4-11 [22]): 8%
Activity (MV4-11 [23]): 61.2%
Activity (MV4-11 [24]): 78.57%
Activity (MV4-11 [25]): 5.16%
Activity (MV4-11 [26]): 20.35%
Activity (MV4-11 [27]): Dose-Dependent Effect
Activity (MV4-11 [28]): Active
Activity (MV4-11 [29]): Tde
